This is an account of results in patent US12492380B2, “Methods for the production of hepatocytes” (FUJIFILM Cellular Dynamics, Inc., priority 2019, dated 2025).

One data set concerns iPSCs. The data set can be described thus: CHIR99021 preconditioning/supplementation during iPSC to hepatocyte differentiation. Format: cell-based, human. Particulars: supplementation midway through differentiation.
Another data set deals with T1, ZAP-70 (Homo sapiens, UniProt P43403).
T1 sequence (P43403 1-619): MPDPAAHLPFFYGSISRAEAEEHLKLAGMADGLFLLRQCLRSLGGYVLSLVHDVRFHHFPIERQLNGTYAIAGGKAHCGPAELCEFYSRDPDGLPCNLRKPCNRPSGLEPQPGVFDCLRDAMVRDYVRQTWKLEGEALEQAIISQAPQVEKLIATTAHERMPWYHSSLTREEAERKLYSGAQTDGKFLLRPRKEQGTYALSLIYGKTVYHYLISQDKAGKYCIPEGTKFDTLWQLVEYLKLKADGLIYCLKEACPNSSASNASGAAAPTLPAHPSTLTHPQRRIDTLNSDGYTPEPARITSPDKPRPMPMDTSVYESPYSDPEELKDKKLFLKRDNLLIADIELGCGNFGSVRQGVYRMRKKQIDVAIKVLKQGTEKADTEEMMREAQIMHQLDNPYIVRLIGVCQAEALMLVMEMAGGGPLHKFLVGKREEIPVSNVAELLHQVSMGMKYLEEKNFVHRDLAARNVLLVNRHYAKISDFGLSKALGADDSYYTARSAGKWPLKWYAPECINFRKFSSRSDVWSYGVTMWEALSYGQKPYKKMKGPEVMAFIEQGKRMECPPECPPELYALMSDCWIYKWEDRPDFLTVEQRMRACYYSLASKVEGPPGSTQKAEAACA
Particulars: cited from earlier work.

In the next data set the test system is iPSC-derived hepatocytes. The data set can be described thus: Stage 3 maturation of thawed end of Stage 2 hepatocytes (morphology, AAT and albumin by flow cytometry). Format: cell-based, human. How it is done:
Thawing Cryopreserved hepatocytes at Stage 2 of differentiation and maturation to Stage 3 hepatocytes post thaw: Cryopreserved hepatocytes at the end of stage 2 were thawed in Stage 3 media. The cells were plated on Collagen I coated plates without spinning in the presence of a rock inhibitor. The media was gently changed at the end of 24 hours post plating. The maturation media contained SB/DAPT or Src kinase inhibitors and the cells were allowed to differentiate to additional 8-10 days with media exchanges every 48 hrs. The end stage cells were analyzed for hepatocyte morphology and the presence of AAT and albumin expression quantified by flow cytometry.
Generation of Liver organoids: Aggregates consisting of hepatocytes and other liver relevant cell types—specifically macrophages, MSC, and endothelial cells—designed to mimic liver organoid culture were established and maintained for 5-10 days. Aggregates were established in hepatocyte Stage 3 media (Table 2) supplemented with 1 μM of H1152, with the non-hepatocyte cells undergoing adaptation to Stage 3 media prior to initiation of co-cultures. For co-culture initiation, end of Stage 1 cells Hepatocytes were recovered from cryopreservation and aggregated at 500,000 cells/mL in Stage 2 media (Table 2) supplemented with 1 μM of rho kinase (rock) inhibitor H1152. […]
Background: In flow cytometry, cells or beads pass a laser one at a time.

Another data set deals with type I TGF-β receptors. The conditions noted are these: direct inhibition, unrelated to Src signaling; cited from earlier work.

Bounds are passed on as bounds.

Procedure for iPSCs: iPS cells were maintained on […] ® in E8 Medium under hypoxic conditions (5% 02), using 0.5 mM EDTA for splitting approximately every 4-5 days. The iPSC cultures were acclimatized to hypoxia for around 10 passages before the onset of hepatocyte differentiation. Starting iPS cell cultures were seeded at 15-20 k/cm^2 on […] ®-coated 6-well plates or T150 flasks. Two days after seeding, media was changed to preconditioning medium (PCM) and fed daily for two-three days. Endoderm induction was performed by placing the cells in media containing activin (DE Day 0 Medium, also referred to as T0 medium). On days 1-2, media was changed to DE Day 1-2 Medium (also referred to as T1-T2 medium) containing activin, along with low concentrations of BMP4, VEGF and FGF2 for the next two days. From day 3-9, media was changed to DE Day 3-9 (also referred to as T3-T6 medium) with the base medium SFD, supplemented with Activin, BMP4 and VEGF. On day 10, a sampling of the culture was performed for staining the percentage of definitive endoderm cells. […] Surface staining was performed to quantify the levels of Tra181, CXCR4, CD117 by flow cytometry. […]
Alternately, the cell individualized cell suspension was placed in media for aggregate formation. […] Intracellular staining to quantify the levels of AAT, ASGPR, Albumin, and matched isotypes was performed via flow cytometry. […]

Consider `Cc1c[nH]c(-c2cnc(NCCNc3ccc(C#N)cn3)nc2-c2ccc(Cl)cc2Cl)n1` [CHIR99021], for which the “expansion of cells during hepatoblast to hepatocyte transition” value with iPSCs was “effective in promoting the expansion of cells”.
As a reminder, the IC50 is the midpoint of a concentration-inhibition curve. For `Cc1ccc(-c2nn(C(C)(C)C)c3ncnc(N)c23)cc1` [PP1], the IC50 at ZAP-70 was not below 600 nM; on type I TGF-β receptors it was 50 nM. Besides, in the data set with iPSC-derived hepatocytes (PP1 substituted for SB431542/DAPT in Stage 3 maturation media, post thaw, preliminary data), the maturation of hepatocytes result is recorded as “facilitated the maturation of hepatocytes”. In addition, the “maturation of hepatocytes in co-culture” value in the data set with iPSC-derived hepatocytes (in the presence of MSCs, macrophages and endothelial cells) was “enhances the maturation of Hepatocytes”.
